Key:
[1] = Fluorescence lifetimes in solvents, two-photon excitation with TCSPC; format: physicochemical; settings: 20° C., two-photon excitation 620-630 nm
Experimental: Fluorescence lifetimes were determined using 2PE at 630 nm with the microscope TCSPC setup (overall time response of 25 ps fwhm) and produced the results shown in Table 1. […] Characterisation of the spectroscopic properties of these latter two compounds remains to be investigated further. […] In the very viscous environment provided by glycerol the lifetime increases further to 1180 ps. In the range of alkanols studied the lifetime is closely correlated with solvent viscosity as shown in the inset to FIG. 3. […] However it is clear that the measured lifetime has the potential to report on cellular environments in FLIM studies. For E-CA4F similar trends are observed, but the overall differences in both lifetimes and quantum yields over the range of solvents are rather less than for E-CA4. The fluorescence lifetimes of E-CA4F are confined to a narrower range having values ranging from 440 ps in methanol through 740 ps in hexane to 1070 ps in glycerol. The more pronounced solvent dependence for E-CA4 no doubt reflects the more polar nature of the molecule compared with E-CA4F. The relative polarities may be judged from the partition coefficients (P) calculated according to the method of Brown et al..

[2] = Fluorescence quantum yields in solvents, UV one-photon excitation; format: physicochemical; settings: 20° C., 290-300 nm excitation
Experimental: Absorption spectra were measured in either a Perkin Elmer Lambda 25 or 950 spectrophotometer. Fluorescence measurements were made with either a Spex Fluoromax or Varian Cary Eclipse spectrofluorimeter using the spectral correction curves supplied by the manufacturers. Fluorescence quantum yields with UV (one-photon) excitation were determined using either 2-aminopyridine (Φref 0.6 [7]) or 9-chloroanthracene (Φref 0.50 in dichloromethane, determined here relative to 9,10-diphenylanthracene in cyclohexane (Φref 0.97) and anthracene in ethanol (Φref 0.28 [8]) as standards. Fluorescence quantum yields were determined from the relative slopes of plots of integrated fluorescence intensity versus (1-10^−A) for samples having absorbance A≦0.1. The square of the refractive index (n^2) correction was applied when sample and reference compounds were in different solvents. Irradiation of the samples was minimized by the use of narrow excitation slits to reduce simultaneous photoisomerization.
The fluorescence quantum yields for E-CA4F were generally somewhat higher than for E-CA4.

[3] = Two-photon absorption cross section using reference fluorophore 9-chloroanthracene; format: physicochemical; settings: at 620 nm, DCM
Description: Cell images were overlaid using Adobe Photoshop CS3.
Published cross sections for two photon absorption (σ2, the probability of an absorption process or photon interaction) typically show large variations depending on the method of measurement, using either the Z-scan method or a reference fluorophore, and the power range and pulse duration of the laser used for excitation. We have attempted to determine values of σ2 for E-CA4 and E-ACA4 using a reference fluorophore. 9-Chloroanthracene (9CIA) was selected as a standard fluorophore with an appropriate fluorescence spectrum and for which 2PE cross-sections are available. The values of σ2 at 620 nm for E-CA4 and E-CA4F in DCM were determined to be 2.1±0.5 and 2.75±0.6 GM units respectively. […] Values of σ2 at 620 nm for E-ACA and E-DMAC were both 5.7±1.2. These larger values may be consistent with some charge transfer character of the excitation of these compounds.

[4] = Observed solubility in water; format: physicochemical; settings: aqueous solution, comparison in words
[5] = Isomerization by two-photon absorption at 590 nm in DMSO solution; format: physicochemical; settings: Z-CA4 1 mM in DMSO, two-photon excitation 590 nm
Experimental: FIG. 11. […] (A) Power dependence of FI from E-CA4 (0.4 mM) versus laser power at the sample. (B) Percentage conversion of Z-CA4 to the E-isomer versus laser power at the sample, calculated from the measured FI from a solution of Z-CA4 (1 mM) and a series of calibration curves using solutions of E-CA4 at each laser power.
Using 2PE the photochemical effects occur within the femtolitre volume of excitation. […] At any one instant, the concentration of isomerized compound in the focal volume will represent a steady state achieved through the balance of diffusion from the focal volume and the rate of photochemical formation.
Calibration curves were constructed of FI versus E-CA4 concentration at each laser power. These were then compared with the FI from the two-photon experiment with Z-CA4 to estimate the concentration of E-CA4 formed within the focal volume.

[6] = Picosecond time-resolved infrared (TRIR) spectroscopy of excited states; format: physicochemical; settings: dichloromethane, 266 nm excitation
Experimental: The ultrafast time-resolved infrared (TRIR) experiments were performed on the ‘ULTRA’ laser system at the Science and Technology Facilities Council Rutherford Appleton Laboratory. The capabilities of the ULTRA instrument are described in detail elsewhere. Briefly, a chirped pulse amplified titanium:sapphire laser operating at 10 kHz repetition rate produced 40-80 fs duration pulses at a wavelength of 800 nm. The UV excitation pulse was generated from third harmonic generation of the 800 nm output of the amplifier with ˜50 fs duration at 266 nm, irradiating samples with a 1 μJ, 100 μm diameter beam. The mid-IR probe pulse was generated using ˜0.4 mJ of the 800 nm femtosecond output to pump an optical parametric amplifier, and difference frequency mixing of the signal and idler components. The mid-IR probe output pulses had ˜500 cm-1 bandwidth and ˜50 fs pulse duration. The UV pulses were polarized at a magic angle to the IR probe laser polarization. The timing between the pump and probe was performed using a PCcontrolled optical delay line. The sample in solution was placed between two 25 mm diameter CaF2 plates in a rasterscanned Harrick cell to limit irradiation of the sample by multiple pulses. The optical path of the sample between the two windows was controlled using a 100 μm PTFE spacer and the solution flowed using a peristaltic pump. The intensity of the transmitted mid-IR light was dispersed by a grating onto a pair of 128-element mercury-cadmium telluride array detectors (IR Associates), providing full (i.e. ˜500 cm-1) spectral coverage with every laser pulse. The overall instrument response time was ˜200 fs. A reference spectrum of the laser pulse (before the Harrick cell) was accumulated on a third, 64-element array detector and was used to remove the effects of laser fluctuations from the transient absorption data. Ground-state FTIR spectra were recorded using a Nicolet Avatar 360 spectrometer.
FIGS. 12 and 13 show the TRIR spectra of both isomers of CA4 following ultrafast electronic excitation using 266 nm, with the ground-state FTIR spectra shown beneath the time resolved data for comparison. To date there has been little characterization of combretastatins by infrared spectroscopy. However, the ground-state FTIR spectra have obvious similarities with stilbene and on this basis we assign the 1586/1581 and 1510/1509 cm-1 bands in E-CA4/Z-CA4 to the v8a ring stretches of the phenyl groups and v19a ring stretch with additional contributions from C—H in-plane bending. In the excited state spectra, there are negative absorption bands corresponding to bleaching of the ground-state absorptions and both the E- and Z-isomers are dominated by transient bands between 1350 and 1500 cm-1. At early times the transient bands show rapid shifting over about 10 cm-1 to higher wavenumbers associated with rapid ‘cooling’ of excess vibrational energy following electronic excitation as commonly observed in other molecular systems including DNA [26] and for the C═C stretching band of E-stilbene observed by time-resolved resonance Raman spectroscopy. It is also notable that for E-CA4 at pump-probe delays up to 20 ps, the intensities of the transient bands increase and this is most likely due to molecular rearrangements taking place lowering the overall symmetry of the molecule and increasing the cross-sections of these IR active modes. […]

cells = settings: typical toxicity assays; cited from earlier work

| SMILES | Fluorescence lifetime τ ([1]; DMSO) [ns] | Fluorescence lifetime τ ([1]; EtOH, ne = non-exponential) | Fluorescence lifetime τ ([1]; Ethylene glycol, ne = non-exponential) | Fluorescence lifetime τ ([1]; Glycerol, ne = non-exponential) | Fluorescence lifetime τ ([1]; Hexane) [ns] | Fluorescence lifetime τ ([1]; MeCN, ne = non-exponential) [ns] | Fluorescence lifetime τ ([1]; MeOH, ne = non-exponential) | Fluorescence quantum yield φ ([2]; DCM) | Fluorescence quantum yield φ ([2]; DMSO) | Fluorescence quantum yield φ ([2]; Hexane) | Fluorescence quantum yield φ ([2]; MeCN) | Fluorescence quantum yield φ ([2]; MeOH) | Two photon absorption cross section σ2 [3] [GM units] | Solubility in water [4] | Concentration of E-CA4 formed within the focal volume [5] | Conversion of the initial concentration of Z-CA4 to the E-isomer [5] [%] | Excited state decay, longer lifetime (relaxed excited state) [6] [ps] | Excited state decay, shorter lifetime (biexponential fit) [6] [ps] | Concentrations required to kill cells (cells) |
| --- | --- | --- | --- | --- | --- | --- | --- | --- | --- | --- | --- | --- | --- | --- | --- | --- | --- | --- | --- |
| COc1ccc(/C=C/c2cc(OC)c(OC)c(OC)c2)cc1N [E-ACA, (E)-1-(3′-Amino-4′-methoxyphenyl)-2-(3″,4″,5″-trimethoxyphenyl)ethene] | 4.8 | ne | ne | ne | 1.65 | 3.6 | ne | 0.43 | 0.28 | 0.38 | 0.41 | 0.11 | 5.7±1.2 | more soluble in water than the other combretastatins studied here | – | – | – | – | – |
| COc1ccc(/C=C\c2cc(OC)c(OC)c(OC)c2)cc1O [Z-CA4, combretastatin A4, reference compound] | – | – | – | – | – | – | – | – | – | – | – | – | – | – | about 250 μM | 25 | 10.1±0.71 | 1.5±0.15 | nanomolar |
